Data published in patent US20260250257A1, “ANTIBACTERIAL AND SYNERGISTIC ACTIVE COMPOUND AND USE THEREOF” (EAST CHINA UNIVERSITY OF SCIENCE AND TECHNOLOGY, priority 2023, published 2026).
Converted amounts (≈) assume the structure as drawn.

Tests used:
Assay type in all cases: cell-based
[1] = test system: ATCC13883 strain (Klebsiella pneumoniae); test: Checkerboard antibacterial synergistic activity test with polymyxin E (FIC); set-up: key: FIC≤0.5 synergy; 0.5–1 additive; 1–2 indifferent; ≥2 antagonism; conditions: combined with polymyxin E
Procedure, shortened: (§1)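 Broth checkerboard synergy with colistin; listed dilutions are working solutions, not final well levels. Overnight incubation, 16 h at 37° C.; FIC ≤0.5 denotes synergy, ≥2 antagonism.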

[2] = test system: ATCC19606 strain (Acinetobacter baumannii); test: as above; set-up: key: FIC≤0.5 synergy; 0.5–1 additive; 1–2 indifferent; ≥2 antagonism; conditions: combined with polymyxin E
Procedure, shortened: as §1

[3] = test system: ATCC25922 strain (Escherichia coli); test: as above; set-up: key: FIC≤0.5 synergy; 0.5–1 additive; 1–2 indifferent; ≥2 antagonism; conditions: combined with polymyxin E
Procedure, shortened: as §1

[4] = test system: ATCC9027 strain (Pseudomonas aeruginosa); test: as above; set-up: key: FIC≤0.5 synergy; 0.5–1 additive; 1–2 indifferent; ≥2 antagonism; conditions: combined with polymyxin E
Procedure, shortened: as §1

[5] = test system: ATCC13883 strain (Klebsiella pneumoniae); test: Broth microdilution, antibacterial activity of the compound used alone; conditions: for MIC: read-out: Antibacterial activity of the compound of Formula I, ATCC13883
Description: (§2) The broth microdilution method was used to test the antibacterial effects of the compounds of the present invention against various Gram-negative bacterial strains when used alone.

[6] = test system: ATCC19606 strain (Acinetobacter baumannii); test: as above; conditions: for MIC: read-out: Antibacterial activity of the compound of Formula I, ATCC19606
Description: as §2

[7] = test system: ATCC25922 strain (Escherichia coli); test: as above; conditions: for MIC: read-out: Antibacterial activity of the compound of Formula I, ATCC25922
Description: as §2

[8] = test system: ATCC9027 strain (Pseudomonas aeruginosa); test: as above; conditions: for MIC: read-out: Antibacterial activity of the compound of Formula I, ATCC9027
Description: as §2

Compound | Synergistic activity (FIC value) ATCC13883 [1] | Synergistic activity (FIC value) ATCC19606 [2] | Synergistic activity (FIC value) ATCC25922 [3] | Synergistic activity (FIC value) ATCC9027 [4] | Antibacterial activity of the compound of Formula I, ATCC13883 [5] [µg/mL] | Antibacterial activity of the compound of Formula I, ATCC19606 [6] [µg/mL] | Antibacterial activity of the compound of Formula I, ATCC25922 [7] [µg/mL] | Antibacterial activity of the compound of Formula I, ATCC9027 [8] [µg/mL] | MIC [5] [µg/mL] | MIC [6] [µg/mL] | MIC [7] [µg/mL] | MIC [8] [µg/mL]
CSc1cc2cccc(C)n2c1-c1csc(N=C2NCCCN2)n1 [Compound I-194] | 1.25 | 1.25 | 0.5 | 0.63 | 128 | 256 | 128 | 64 | – | – | – | –
Cc1ccc(Sc2ccccc2-c2coc(N=C(N)N)n2)c(C)c1 [Compound I-108] | 0.16 | 0.03 | 0.18 | 0.28 | 256 | 256 | 256 | 256 | – | – | – | –
NC(N)=Nc1nc(-c2c(Cl)cc(Cl)cc2Cl)c[nH]1 [Compound I-52] | 0.25 | 0.3 | 0.5 | 0.63 | 256 | 256 | 256 | 256 | – | – | – | –
Cc1c(-c2coc(N=C3NCCCN3)n2)ccc(Cl)c1C#N [Compound I-169] | 0.33 | 0.15 | 0.39 | 0.62 | 256 | 256 | 256 | 256 | – | – | – | –
Oc1cc(Oc2ccc(Cl)cc2Cl)cc(-c2csc(N=C3NCCCN3)n2)c1 [Compound I-156] | 0.13 | 0.04 | 0.2 | 0.28 | 256 | 256 | 256 | 256 | – | – | – | –
COc1ccc(Oc2cccc(-c3csc(N=C(N)N)n3)c2)c(OC)c1 [Compound I-98] | 0.09 | 0.31 | 0.14 | 0.06 | 256 | 256 | 256 | 256 | – | – | – | –
CCc1[nH]c(N=C(N)N)nc1-c1cccc2c(C)cccc12 [Compound I-60] | 0.31 | 0.12 | 0.38 | 0.31 | 256 | 256 | 256 | 256 | – | – | – | –
CSc1cc2cc(Cl)cc(Cl)n2c1-c1nc(N=C(N)N)sc1Cl [Compound I-130] | 0.16 | 0.03 | 0.18 | 0.28 | 256 | 256 | 256 | 256 | – | – | – | –
NC(N)=Nc1nc(-c2cccc(-c3ccccc3)c2)cs1 [Compound I-74] | 0.33 | 0.15 | 0.39 | 0.62 | – | – | – | – | 256 (≈ 870 µM) | 256 (≈ 870 µM) | 256 (≈ 870 µM) | 256 (≈ 870 µM)
Cc1ccc(Oc2cccc(-c3csc(N=C4NCCCN4)n3)c2)c(C)c1 [Compound I-153] | 0.09 | 0.31 | 0.14 | 0.06 | 256 | 256 | 256 | 256 | – | – | – | –
Oc1c(Cl)cc(-c2csc(N=C3NCCCN3)n2)cc1Cl [Compound I-188] | 1.25 | 0.25 | 1.25 | 0.52 | 256 | 256 | 256 | 256 | – | – | – | –
NC(N)=Nc1nc(-c2ccccc2Oc2ccccc2Cl)cs1 [Compound I-84] | 0.09 | 0.63 | 0.27 | 0.04 | 256 | 256 | 256 | 256 | – | – | – | –
Fc1sc(N=C2NCCCN2)nc1-c1cc(Br)cc(Br)c1 [Compound I-177] | 1.25 | 0.5 | 0.63 | 1.25 | 256 | 256 | 256 | 256 | – | – | – | –
NC(N)=Nc1nc(-c2cccc(Oc3ccccn3)c2)cs1 [Compound I-104] | 1.25 | 0.25 | 1.25 | 0.52 | – | – | – | – | 256 (≈ 822 µM) | 256 (≈ 822 µM) | 256 (≈ 822 µM) | 256 (≈ 822 µM)
NC(N)=Nc1nc(-c2cccc(NC(=O)Nc3ccc(Cl)cc3Cl)c2)c(Cl)s1 [Compound I-133] | 0.19 | 0.38 | 0.04 | 0.04 | 256 | 256 | 256 | 256 | – | – | – | –
